Consider one compound from US20260297165A1, “COMPOSITIONS AND METHODS FOR EXPRESSING THERAPEUTICS” (priority 2023, published 2026).

One assay addresses T1, C3c (Homo sapiens, UniProt P01024).
T1 construct: C3, C3b and C3c proteins were immobilized in flow cell 2 or 4
Briefly: Binding affinity to C3c by Biacore. (In SPR one partner is held on a chip, and binding of the other changes the refractive index at the surface.)

The next assay deals with rabbit erythrocytes. Briefly: Hemolysis inhibition assay with rabbit erythrocytes and normal human serum. It counts as cell-based. The protocol: In parallel, serum dose causing approximately 70% hemolysis was determined for new normal human serum (NHS) before the purified proteins were used for a hemolysis inhibition assay. Various doses of NHS were mixed with rabbit erythrocytes (Cat. B300, Complement Technology) in the presence of 0.1 M Mg2+ EGTA (Cat. B106, Complement Technology). Background lysis was measured using GVBE (GVBo plus 20 mM EDTA, pH 7.4), and maximum lysis was measured by lysing all the cells with Maximum Lysis Buffer (GVBo+0.2% NP40). After all the samples were mixed on ice, they were transferred to 37° C. water bath. The samples were vortexed every 5 minutes and incubated for 30 minutes in total. 1 mL of cold GVBE was added into each tube to stop the reaction. After samples were centrifuged for 3 min at approximately 1000× g to pellet cells, the supernatant was transferred to a cuvette and read at 412 nm in SpectaMax iD3 microplate reader. Each reading was normalized to the background, divided by Max Lysis minus background, and multiplied by 100, which equaled % of Max Lysis. Using the GraphPad Prism software, the % of Max Lysis was plotted against microliters of NHS, and the dose of NHS causing 50% and 70% hemolysis was respectively determined.
Using the NHS dose causing 70% hemolysis, the purified mutant proteins were utilized for a hemolysis inhibition assay. All mutant proteins were 2× serially diluted and mixed with the rabbit erythrocytes in the presence of NHS, resulting in the final concentration of […], 4.10, 2.05, and 1.02 μM of each mutant protein. The benchmark, CP40 peptide, was also used in this study. After each reading was subtracted from the background, it was divided by 70% hemolysis minus background and multiplied by 100. The value was considered as % of hemolysis inhibition. The percentage of hemolysis inhibition was plotted against the molecular concentration of mutant proteins by GraphPad Prism software and IC50 value was estimated based on the data plotting.

The next assay addresses C3b (Homo sapiens, UniProt P01024). The assay can be described thus: Binding affinity to C3b by Biacore. As to the method: (§1) The estimated IC50 of the C3i fusion proteins were measured as shown above. Next their binding affinity with Complement C3b, C3c, and C3 was tested. Binding affinity was measured using Biacore. Biosensor analysis was performed at room temperature in a running buffer (1×HBS, 20 mM NaH2PO4-Na2HPO4·H2O, 150 mM NaCl, pH 7.4, supplemented with 0.005% (v/v) surfactant P20), using a Biacore 3000 optical biosensor equipped with a research-grade CM5 sensor chip. C3, C3b and C3c proteins were immobilized in flow cell 2 or 4 via standard amine coupling, leaving Fc1 or 3 unmodified to serve as a reference surface. The immobilization levels of proteins were calculated using Rmax=100 RU and the ratio of ligand molecular weight/analyte molecular. Data analysis was conducted using the BIAevaluation software. All sensorgrams were double-referenced by subtracting the response on a reference flow cell and a blank sample. Five 2× serial dilution samples were injected sequentially from low concentration to high concentration of proteins at a flow rate of 30 μL/min (300 seconds for each), followed by a dissociation time of 900 seconds. Calculations of kinetic parameters were conducted assuming a simple 1:1 (Langmuir) binding.
(§2) After the testing concentrating was optimized for individual proteins, they were applied on the immobilized chip, and association rate constant (Ka, M^−1s^−1), dissociation constant (Kd, s^−1), equilibrium dissociation constant (KD, M), maximal feasible signal (Rmax), and chi^2 were recorded. The results for complement C3b, C3c, and C3 are listed in Table 22, Table 23, and Table 24, respectively. […] The estimated IC50 of C3i and its fusion proteins and their binding affinity (KD) against C3b, C3c, and C3 are shown in Table 25. When KD values were plotted against estimated IC50, they correlated well with each other for C3b (FIG. 23A) and C3c (FIG. 23B) and, in most cases, for C3 (FIG. 23C).

In the next assay the target is C3 (Homo sapiens, UniProt P01024). The assay can be described thus: Binding affinity to C3 by Biacore. As to the method: as §1, §2
Chain of C3 (P01024 23-1663): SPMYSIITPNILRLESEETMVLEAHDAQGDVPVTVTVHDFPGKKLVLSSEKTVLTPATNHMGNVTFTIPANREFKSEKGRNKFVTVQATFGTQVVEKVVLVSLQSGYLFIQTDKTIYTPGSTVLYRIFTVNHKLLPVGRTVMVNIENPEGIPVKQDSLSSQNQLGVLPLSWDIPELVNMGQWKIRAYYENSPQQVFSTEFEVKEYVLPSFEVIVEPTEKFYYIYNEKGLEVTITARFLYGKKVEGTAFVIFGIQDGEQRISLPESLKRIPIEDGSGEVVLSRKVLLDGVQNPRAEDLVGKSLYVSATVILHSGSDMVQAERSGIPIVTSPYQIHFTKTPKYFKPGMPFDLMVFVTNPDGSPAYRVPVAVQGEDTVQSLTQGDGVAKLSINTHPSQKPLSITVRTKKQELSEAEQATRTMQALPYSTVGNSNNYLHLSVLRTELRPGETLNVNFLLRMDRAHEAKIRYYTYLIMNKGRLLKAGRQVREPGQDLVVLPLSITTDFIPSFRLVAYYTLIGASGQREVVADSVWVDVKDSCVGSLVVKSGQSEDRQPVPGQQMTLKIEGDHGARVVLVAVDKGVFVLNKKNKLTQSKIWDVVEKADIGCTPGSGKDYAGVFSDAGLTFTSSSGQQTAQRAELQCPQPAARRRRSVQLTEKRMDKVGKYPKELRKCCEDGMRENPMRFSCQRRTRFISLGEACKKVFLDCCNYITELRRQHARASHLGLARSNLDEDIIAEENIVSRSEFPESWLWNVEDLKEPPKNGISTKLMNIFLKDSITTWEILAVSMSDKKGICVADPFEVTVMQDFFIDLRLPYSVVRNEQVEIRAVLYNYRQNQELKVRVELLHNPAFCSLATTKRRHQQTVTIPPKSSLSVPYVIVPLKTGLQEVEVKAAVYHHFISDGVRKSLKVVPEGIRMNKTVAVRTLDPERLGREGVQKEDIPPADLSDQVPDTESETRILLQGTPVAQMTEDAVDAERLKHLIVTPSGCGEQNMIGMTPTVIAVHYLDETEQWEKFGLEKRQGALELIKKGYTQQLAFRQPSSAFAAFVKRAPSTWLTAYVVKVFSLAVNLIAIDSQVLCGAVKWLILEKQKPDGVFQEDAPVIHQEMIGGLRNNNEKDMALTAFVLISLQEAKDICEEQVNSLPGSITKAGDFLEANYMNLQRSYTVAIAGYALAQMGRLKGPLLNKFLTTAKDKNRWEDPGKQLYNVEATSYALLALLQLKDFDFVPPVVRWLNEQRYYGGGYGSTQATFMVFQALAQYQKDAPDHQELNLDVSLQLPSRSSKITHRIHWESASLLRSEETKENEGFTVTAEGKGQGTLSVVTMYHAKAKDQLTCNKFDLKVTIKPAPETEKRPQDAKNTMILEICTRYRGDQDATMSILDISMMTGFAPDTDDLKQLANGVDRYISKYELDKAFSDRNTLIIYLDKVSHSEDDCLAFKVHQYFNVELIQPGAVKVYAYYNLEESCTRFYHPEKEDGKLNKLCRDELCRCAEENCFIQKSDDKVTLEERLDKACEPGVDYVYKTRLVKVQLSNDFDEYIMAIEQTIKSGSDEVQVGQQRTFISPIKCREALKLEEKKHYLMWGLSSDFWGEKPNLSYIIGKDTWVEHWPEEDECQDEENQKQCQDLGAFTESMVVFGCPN
In a further assay the test system is NIH-3T3 cells. The assay can be described thus: cGMP production in NIH-3T3 cells. It counts as cell-based.
In another assay the test system is Hep1c1c7 cells. Briefly: Cell lysis inhibition assay (normal human serum, WST-8). Type of assay: cell-based. Conditions: NHS dose causing 70% cell lysis. The protocol: To test biological function of sCD59, cell lysis inhibition assay was performed using Hep1c1c7 cells. The serum dose causing approximately 70% cell lysis was determined for the new normal human serum (NHS) before the purified sCD59 proteins were used for cell lysis inhibition assay. Three hours prior to the experiment, 1×10^4 cells per well were seeded onto a 96-well plate. Various doses of NHS were mixed with GVB2++ buffer (with Ca^2+ and Mg^2+) (Complement Technology, Cat. B100). 100 μL of mixture was added to each well. Background lysis was measured using GVB2++ buffer only and maximum lysis was measured by lysing all the cells with Maximum Lysis Buffer (GVB2++ plus 1% SDS). […] The absorbance at 450 nm was measured using a microplate reader. To calculate the percentage of live cells, the absorbance was subtracted by the Max Lysis, divided by Background Lysis minus Max Lysis and multiplied by 100, which equaled the % of live cells. The % of dead cells was calculated by subtracting 100 by the % of live cells. In the GraphPad Prism, the % of cell death was plotted against dose of NHS, and the dose of NHS causing 50% and 70% hemolysis was respectively determined (FIG. 15A). […]
To test biological function of vsCD59, cell lysis inhibition assay is performed using Hep1c1c7 cells. […] The absorbance at 450 nm is measured using a microplate reader. […]

Chain of C3b (P01024 23-667 limits assumed): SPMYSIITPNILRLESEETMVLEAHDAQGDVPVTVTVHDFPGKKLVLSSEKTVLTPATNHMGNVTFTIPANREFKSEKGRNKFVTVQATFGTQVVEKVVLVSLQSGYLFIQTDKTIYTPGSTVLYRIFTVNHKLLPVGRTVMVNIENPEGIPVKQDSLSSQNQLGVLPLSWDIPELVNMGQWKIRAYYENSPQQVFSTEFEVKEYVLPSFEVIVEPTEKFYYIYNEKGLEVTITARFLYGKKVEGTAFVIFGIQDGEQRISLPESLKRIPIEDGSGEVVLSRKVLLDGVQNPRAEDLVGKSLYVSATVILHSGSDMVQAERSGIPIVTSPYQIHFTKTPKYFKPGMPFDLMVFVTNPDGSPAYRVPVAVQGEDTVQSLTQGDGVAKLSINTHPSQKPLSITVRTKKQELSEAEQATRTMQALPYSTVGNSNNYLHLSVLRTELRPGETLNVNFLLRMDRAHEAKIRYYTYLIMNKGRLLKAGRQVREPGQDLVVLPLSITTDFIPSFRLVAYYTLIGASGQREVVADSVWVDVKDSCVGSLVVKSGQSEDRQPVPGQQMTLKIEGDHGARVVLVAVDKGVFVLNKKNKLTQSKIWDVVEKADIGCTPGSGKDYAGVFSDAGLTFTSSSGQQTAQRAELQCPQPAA
Chain of C3b (P01024 749-1663 partner limits assumed): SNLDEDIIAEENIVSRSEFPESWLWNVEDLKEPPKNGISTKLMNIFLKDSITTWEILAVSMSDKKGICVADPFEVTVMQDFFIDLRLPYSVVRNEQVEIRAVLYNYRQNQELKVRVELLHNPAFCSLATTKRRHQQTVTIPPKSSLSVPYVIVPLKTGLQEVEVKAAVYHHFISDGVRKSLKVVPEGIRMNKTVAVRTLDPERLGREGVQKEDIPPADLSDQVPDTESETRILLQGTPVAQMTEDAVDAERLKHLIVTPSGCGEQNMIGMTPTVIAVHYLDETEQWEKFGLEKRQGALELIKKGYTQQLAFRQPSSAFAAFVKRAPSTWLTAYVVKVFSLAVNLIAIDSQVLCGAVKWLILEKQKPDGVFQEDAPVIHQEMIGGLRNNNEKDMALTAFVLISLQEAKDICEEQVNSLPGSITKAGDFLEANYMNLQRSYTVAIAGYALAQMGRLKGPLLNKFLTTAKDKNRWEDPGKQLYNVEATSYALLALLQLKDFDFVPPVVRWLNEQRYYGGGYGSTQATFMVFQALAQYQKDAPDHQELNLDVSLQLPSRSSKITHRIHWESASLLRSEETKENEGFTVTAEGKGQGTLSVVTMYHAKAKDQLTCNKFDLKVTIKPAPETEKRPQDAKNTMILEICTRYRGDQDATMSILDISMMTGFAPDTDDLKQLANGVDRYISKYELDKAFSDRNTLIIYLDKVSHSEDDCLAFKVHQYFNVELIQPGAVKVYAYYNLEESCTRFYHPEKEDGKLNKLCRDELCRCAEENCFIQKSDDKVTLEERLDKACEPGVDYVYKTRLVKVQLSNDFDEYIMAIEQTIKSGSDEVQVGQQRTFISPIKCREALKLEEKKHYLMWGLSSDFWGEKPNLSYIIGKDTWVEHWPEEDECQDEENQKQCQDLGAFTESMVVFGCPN
T1 sequence (P01024 23-667 limits assumed): as the sequence (P01024 23-667 limits assumed) above
T1 sequence (P01024 749-954 partner limits assumed): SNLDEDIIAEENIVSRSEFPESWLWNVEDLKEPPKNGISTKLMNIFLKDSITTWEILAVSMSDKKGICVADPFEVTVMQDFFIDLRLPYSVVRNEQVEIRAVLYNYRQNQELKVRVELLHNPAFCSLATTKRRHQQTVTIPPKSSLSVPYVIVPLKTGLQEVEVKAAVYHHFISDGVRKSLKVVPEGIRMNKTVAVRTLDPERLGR
T1 sequence (P01024 1321-1663 partner limits assumed): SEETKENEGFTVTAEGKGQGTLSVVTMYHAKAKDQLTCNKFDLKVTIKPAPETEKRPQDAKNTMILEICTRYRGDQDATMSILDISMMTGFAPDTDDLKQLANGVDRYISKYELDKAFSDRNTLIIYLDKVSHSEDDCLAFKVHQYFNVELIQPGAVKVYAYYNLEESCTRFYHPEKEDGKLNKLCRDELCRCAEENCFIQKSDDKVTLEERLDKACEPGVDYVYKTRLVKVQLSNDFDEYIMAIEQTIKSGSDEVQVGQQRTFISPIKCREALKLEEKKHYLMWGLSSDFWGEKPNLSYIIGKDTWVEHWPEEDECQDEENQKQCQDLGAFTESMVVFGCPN

Turning to `CC[C@H](C)[C@H](NC(=O)[C@H](N)Cc1ccc(O)cc1)C(=O)N[C@H]1CSSC[C@@H](C(=O)N(C)[C@H](C(N)=O)[C@@H](C)CC)NC(=O)[C@H](CCCNC(=N)N)NC(=O)[C@H](Cc2c[nH]cn2)NC(=O)[C@H](C)NC(=O)CN(C)C(=O)[C@H](Cc2c[nH]c3ccccc23)NC(=O)[C@H](CC(=O)O)NC(=O)[C@H](CCC(N)=O)NC(=O)[C@H](Cc2cn(C)c3ccccc23)NC(=O)[C@H](C(C)C)NC1=O` [CP40], the Kd at C3c is 0.509 nM; at C3b (Affinity to C3b KD, C3b, Biacore, Table 25), 0.32 nM; on C3b (KD, C3b immobilized, 1:1 (Langmuir) binding), 0.324 nM; at C3 (Affinity to C3 KD, Table 25), 0.63 nM; at C3 (KD, equilibrium dissociation constant, room temperature, pH 7.4), 0.629 nM. Also, the “Chi^2” value was 0.05 on C3c (chi^2 of fit, C3c, Biacore); 0.12 at C3b (C3b immobilized, fit); 0.10 on C3 (chi^2 of fit). In addition, the Rmax on C3c (maximal feasible signal, C3c, Biacore) was 4.65; on C3 (maximal feasible signal), 25.70. For the same compound, in the assay with rabbit erythrocytes (NHS dose causing 70% hemolysis), the “Estimated IC50 of hemolysis inhibition” value is 780 nM. Moreover, the “Bioactivity IC50 Change” value in the assay with rabbit erythrocytes (change of estimated IC50 relative to CP40) is reported as 1 fold. Besides, the 50% inhibitory concentration (IC50) in the assay with rabbit erythrocytes (estimated IC50, read-out: Bioactivity IC50) is 780 nM. Further, the “Rmax (maximal feasible signal)” value on C3b (C3b immobilized) was determined as 3.18. In addition, the cGMP production result in the assay on NIH-3T3 cells is recorded as “not”. Besides, in the assay with Hep1c1c7 cells, the cell lysis inhibition entry is recorded as “marginal inhibition”.

As a reminder, the Kd is a measure of binding affinity in units of concentration. Low values mean tighter binding, high ones weaker binding. Broadly, the IC50 is the point on the concentration scale where inhibition reaches its midpoint.
